Results on 28 compounds are retold here after ChEMBL document CHEMBL3286334, “Identification of tetrapeptides from a mixture based positional scanning library that can restore nM full agonist function of the L106P, I69T, I102S, A219V, C271Y, and C271R human melanocortin-4 polymorphic receptors (hMC4Rs)” (J Med Chem, 2014).

Where a SMILES comes first, the peptide text is derived from it. [ ]: non-standard residue; d: D form. Phe(4-I) = N[C@@H](Cc1ccc(I)cc1)C(=O)O; dPhe(4-I) = N[C@H](Cc1ccc(I)cc1)C(=O)O; Tic = O=C(O)[C@@H]1Cc2ccccc2CN1

Common to all, as to assay type: functional, cell-based
Assay [1] concerns the target Melanocortin receptor 4 (Homo sapiens, UniProt P32245, I102S). The assay is described as follows: Agonist activity at human melanocortin-4 receptor I102S mutant expressed in HEK293 cells co-transfected with CRE/beta-galactosidase reporter gene assessed as stimulatory response after 6 hrs. Background: A reporter such as luciferase makes a cellular process visible.
Assay [2] concerns the target Melanocortin receptor 4 (Homo sapiens, UniProt P32245, L106P). In words: Agonist activity at human melanocortin-4 receptor L106P mutant expressed in HEK293 cells co-transfected with CRE/beta-galactosidase reporter gene assessed as stimulatory response after 6 hrs.
Assay [3] deals with Melanocortin receptor 4 (Homo sapiens, UniProt P32245, C271Y). In words: Agonist activity at human melanocortin-4 receptor C271Y mutant expressed in HEK293 cells co-transfected with CRE/beta-galactosidase reporter gene assessed as stimulatory response after 6 hrs.
Assay [4] has as its target Melanocyte-stimulating hormone receptor (Mus musculus, UniProt Q01727). In words: Agonist activity at mouse melanocortin-1 receptor expressed in HEK293 cells co-transfected with CRE/beta-galactosidase reporter gene assessed as stimulatory response after 6 hrs.
In assay [5] the test system is Melanocortin receptor 4 (Homo sapiens), P32245 [L106P]. The assay is described as follows: Agonist activity at human melanocortin-4 receptor L106P mutant expressed in HEK293 cells co-transfected with CRE/beta-galactosidase reporter gene assessed as stimulatory response at 10 uM after 6 hrs.
The target in assay [6] is Melanocortin receptor 3 (Mus musculus, UniProt P33033). In words: Agonist activity at mouse melanocortin-3 receptor expressed in HEK293 cells co-transfected with CRE/beta-galactosidase reporter gene assessed as stimulatory response after 6 hrs.
The target of assay [7] is T1, Melanocortin receptor 4 (Homo sapiens, UniProt P32245). In words: Agonist activity at wild type human melanocortin-4 receptor expressed in HEK293 cells co-transfected with CRE/beta-galactosidase reporter gene assessed as stimulatory response after 6 hrs.
Assay [8] addresses Melanocortin receptor 5 (Mus musculus, UniProt P41149). The assay is described as follows: Agonist activity at mouse melanocortin-5 receptor expressed in HEK293 cells co-transfected with CRE/beta-galactosidase reporter gene assessed as stimulatory response after 6 hrs.
For assay [9], the target named is Melanocortin receptor 4 (Mus musculus, UniProt P56450). The assay is described as follows: Agonist activity at mouse melanocortin-4 receptor expressed in HEK293 cells co-transfected with CRE/beta-galactosidase reporter gene assessed as stimulatory response after 6 hrs.
Assay [10] concerns the target Melanocortin receptor 4 (Homo sapiens, UniProt P32245, C271R). In words: Agonist activity at human melanocortin-4 receptor C271R mutant expressed in HEK293 cells co-transfected with CRE/beta-galactosidase reporter gene assessed as stimulatory response after 6 hrs.
The target in assay [11] is Melanocortin receptor 4 (Homo sapiens, UniProt P32245, A219V). In words: Agonist activity at human melanocortin-4 receptor A219V mutant expressed in HEK293 cells co-transfected with CRE/beta-galactosidase reporter gene assessed as stimulatory response after 6 hrs.
Assay [12] has as its target Melanocortin receptor 4 (Homo sapiens, UniProt P32245, I69T). The assay is described as follows: Agonist activity at human melanocortin-4 receptor I69T mutant expressed in HEK293 cells co-transfected with CRE/beta-galactosidase reporter gene assessed as stimulatory response after 6 hrs.
The subject of assay [13] is Melanocortin receptor 4 (Homo sapiens), P32245 [L106P]. In words: Agonist activity at human melanocortin-4 receptor L106P mutant expressed in HEK293 cells co-transfected with CRE/beta-galactosidase reporter gene assessed as stimulatory response at 100 uM after 6 hrs.
In assay [14] the target is T1, Melanocortin receptor 4. In words: Agonist activity at wild type human melanocortin-4 receptor expressed in HEK293 cells co-transfected with CRE/beta-galactosidase reporter gene assessed as stimulatory response at 100 uM after 6 hrs.

As usually defined, the EC50 is the concentration that produces a half-maximal response. With `CC(=O)N[C@@H](CCCNC(=N)N)C(=O)N[C@H](Cc1ccc(I)cc1)C(=O)N[C@@H](CCCNC(=N)N)C(=O)N[C@@H](Cc1ccc(I)cc1)C(N)=O`, the 50% effective concentration (EC50) in [1] was 3.5 nM; in [2] it was 4.4 nM; in assay [3] it was above 100000 nM.

As to `CC(=O)N[C@@H](Cc1cnc[nH]1)C(=O)N[C@H](Cc1ccc(Cl)cc1)C(=O)N[C@@H](CCCNC(=N)N)C(=O)N[C@@H](Cc1ccc(I)cc1)C(N)=O`, in assay [4], the EC50 came out at 19 nM.

Consider `CC(=O)N1Cc2ccccc2CC1C(=O)N[C@H](Cc1ccc(I)cc1)C(=O)N1Cc2ccccc2CC1C(=O)N[C@@H](Cc1ccc(I)cc1)C(N)=O` (some centres not stated), for which, in assay [5], the Activity was 70%.

As for `CC(=O)N[C@@H](Cc1cnc[nH]1)C(=O)N[C@H](Cc1ccc(I)cc1)C(=O)N[C@@H](CCCNC(=N)N)C(=O)N[C@@H](Cc1ccc(I)cc1)C(N)=O` (Ac-H[dPhe(4-I)]R[Phe(4-I)]-NH2), the EC50 in [4] is 12 nM; in assay [3] it was above 100000 nM.

Take `CC(=O)N[C@@H](Cc1cnc[nH]1)C(=O)N[C@H](Cc1ccc(Cl)cc1)C(=O)N1Cc2ccccc2CC1C(=O)N[C@H](Cc1ccc([N+](=O)[O-])cc1)C(N)=O` (some centres not stated): the EC50 in assay [6] was determined as 55 nM.

For `CC(=O)N[C@@H](CCCNC(=N)N)C(=O)N[C@H](Cc1ccc(Cl)cc1)C(=O)N1Cc2ccccc2CC1C(=O)N[C@H](Cc1ccc([N+](=O)[O-])cc1)C(N)=O` (some centres not stated), the EC50 in assay [6] came to 94 nM.

As to `CC(=O)N[C@@H](Cc1c[nH]cn1)C(=O)N[C@H](Cc1ccc(I)cc1)C(=O)N1Cc2ccccc2C[C@H]1C(=O)N[C@H](Cc1ccc([N+](=O)[O-])cc1)C(N)=O`, the EC50 in assay [7] came to 0.24 nM; in assay [8], 0.84 nM; in assay [1] it was 14 nM; in [2] it was 10 nM; in assay [9] it was 2.4 nM; in [10], 295 nM. For the same compound, the EC50 in assay [11] worked out at 4.5 nM; in [4], 2.9 nM; in assay [3], 190 nM; in assay [12] it was 3.8 nM.

As to `CC(=O)N[C@@H](CCCNC(=N)N)C(=O)N[C@H](Cc1ccc(Cl)cc1)C(=O)N[C@@H](CCCNC(=N)N)C(=O)N[C@@H](Cc1ccc(I)cc1)C(N)=O`, the EC50 is 13 nM in assay [2] and above 100000 nM in [3].

Take `CC(=O)N[C@@H](CCCNC(=N)N)C(=O)N[C@H](Cc1ccc(Cl)cc1)C(=O)N1Cc2ccccc2C[C@H]1C(=O)N[C@H](Cc1ccc([N+](=O)[O-])cc1)C(N)=O`: the EC50 worked out at 0.21 nM in assay [7]; 1 nM in assay [8]; 4.4 nM in [1]; 3.4 nM in assay [2]; 7.6 nM in [9]; 3390 nM in assay [10]. Moreover, the EC50 in assay [11] worked out at 4.2 nM; in assay [4] it was 22 nM; in assay [3], 470 nM; in [12], 5.2 nM.

Take `CC(=O)N[C@@H](Cc1cnc[nH]1)C(=O)N[C@H](Cc1ccc(I)cc1)C(=O)N1Cc2ccccc2CC1C(=O)N[C@H](Cc1ccc([N+](=O)[O-])cc1)C(N)=O` (some centres not stated): the EC50 in assay [6] was found to be 35 nM.

For the compound `CC(=O)N[C@@H](Cc1ccc(O)cc1)C(=O)N[C@H](Cc1ccccc1)C(=O)N[C@@H](CCCNC(=N)N)C(=O)N[C@@H](Cc1c[nH]c2ccccc12)C(N)=O` (Ac-Y[dF]RW-NH2), the EC50 in assay [7] was 6.2 nM; in assay [2], 540 nM.

For the compound `CC(=O)N[C@@H](CCCNC(=N)N)C(=O)N[C@H](Cc1ccccc1)C(=O)N[C@@H](CCCNC(=N)N)C(=O)N[C@@H](Cc1c[nH]c2ccccc12)C(N)=O`, the EC50 is 1.06 nM in assay [7] and 124 nM in assay [2].

For `CC(=O)N[C@@H](Cc1cnc[nH]1)C(=O)N[C@H](Cc1ccc(I)cc1)C(=O)N1Cc2ccccc2CC1C(=O)N[C@@H](Cc1ccc(I)cc1)C(N)=O` (some centres not stated), the EC50 in assay [7] turned out to be 7.42 nM; in assay [2] it was 570 nM.

Turning to `CC(=O)N1Cc2ccccc2C[C@H]1C(=O)N[C@H](Cc1ccc(I)cc1)C(=O)N[C@@H](CCCNC(=N)N)C(=O)N[C@H](Cc1ccc([N+](=O)[O-])cc1)C(N)=O`, the EC50 in [7] was 20 nM; in assay [2] it was 657 nM.

As to `CC(=O)N[C@@H](Cc1c[nH]c2ccccc12)C(=O)N[C@H](Cc1ccccc1)C(=O)N[C@@H](CCCN=C(N)N)C(=O)N[C@@H](Cc1c[nH]c2ccccc12)C(N)=O` (Ac-W[dF]RW-NH2), the figures for the concentration for a half-maximal effect (EC50) in assay [7] and in assay [2] were 32 nM and 170 nM, respectively.

As to `CC(=O)N[C@@H](CCCNC(=N)N)C(=O)N[C@H](Cc1ccc(I)cc1)C(=O)N1Cc2ccccc2C[C@H]1C(=O)N[C@H](Cc1ccc([N+](=O)[O-])cc1)C(N)=O`, the EC50 in [7] was 0.26 nM; in assay [8], 1.1 nM; in [1], 2.9 nM; in assay [2], 2.6 nM; in assay [9], 2.7 nM; in [11], 6.1 nM. Further, the EC50 is 2.7 nM in assay [4], 19700 nM in assay [3] and 4.1 nM in [12].

For `CC(=O)N[C@@H](Cc1cnc[nH]1)C(=O)N[C@H](Cc1ccccc1)C(=O)N[C@@H](CCCNC(=N)N)C(=O)N1Cc2ccccc2CC1C(N)=O` (some centres not stated), the EC50 was above 10000 nM in assay [7] and above 100000 nM in [2].

For the compound `CC(=O)N1Cc2ccccc2C[C@H]1C(=O)N[C@H](Cc1ccc(I)cc1)C(=O)N1Cc2ccccc2C[C@H]1C(=O)N[C@H](Cc1ccc([N+](=O)[O-])cc1)C(N)=O`, the concentration giving a half-maximal response (EC50) in [7] was determined as 5.1 nM; in assay [2], 280 nM.

Consider `CC(=O)N[C@@H](Cc1c[nH]cn1)C(=O)N[C@H](Cc1ccccc1)C(=O)N1Cc2ccccc2C[C@H]1C(=O)N[C@@H](Cc1c[nH]c2ccccc12)C(N)=O`, for which the EC50 in assay [7] (hek293) was found to be 204 nM; in [2] (hek293), 18800 nM.

On to `CC(=O)N1Cc2ccccc2C[C@H]1C(=O)N[C@H](Cc1ccccc1)C(=O)N[C@@H](CCCNC(=N)N)C(=O)N[C@@H](Cc1c[nH]c2ccccc12)C(N)=O` (Ac-[Tic][dF]RW-NH2), for which the EC50 came to 15 nM in assay [7] (hek293) and 4940 nM in assay [2] (hek293).

As to `CC(=O)N[C@@H](CCCNC(=N)N)C(=O)N[C@H](Cc1ccc(I)cc1)C(=O)N1Cc2ccccc2CC1C(=O)N[C@H](Cc1ccc([N+](=O)[O-])cc1)C(N)=O` (some centres not stated), in assay [6], the EC50 stood at 47 nM.

Take `CC(=O)N[C@@H](Cc1c[nH]cn1)C(=O)N[C@H](Cc1ccc(I)cc1)C(=O)N1Cc2ccccc2C[C@H]1C(=O)N1Cc2ccccc2C[C@H]1C(N)=O`: the EC50 in [7] was found to be 24 nM; in assay [2], 3760 nM.

On to `CC(=O)N[C@@H](Cc1c[nH]cn1)C(=O)N[C@H](Cc1ccc(I)cc1)C(=O)N[C@@H](CCCNC(=N)N)C(=O)N1Cc2ccccc2C[C@H]1C(N)=O` (Ac-H[dPhe(4-I)]R[Tic]-NH2), for which the values for the EC50 in assay [7] and in [2] were 89 nM and 6920 nM, respectively.

Turning to `CC(=O)N1Cc2ccccc2CC1C(=O)N[C@H](Cc1ccc(Cl)cc1)C(=O)N1Cc2ccccc2CC1C(=O)N[C@@H](Cc1ccc(I)cc1)C(N)=O` (some centres not stated), the EC50 was 120 nM in assay [7] and 2670 nM in assay [2].

Consider `CC(=O)N1Cc2ccccc2CC1C(=O)N[C@H](Cc1ccc(I)cc1)C(=O)N1Cc2ccccc2CC1C(=O)N1Cc2ccccc2CC1C(N)=O` (some centres not stated), for which the Activity in assay [13] and in assay [14] was 50% in each case.

`CC(=O)N[C@@H](CCCNC(=N)N)C(=O)N[C@H](Cc1ccc(Cl)cc1)C(=O)N1Cc2ccccc2CC1C(=O)N[C@@H](Cc1ccc(I)cc1)C(N)=O` (some centres not stated): the EC50 amounted to 22 nM in assay [7] and 215 nM in assay [2].

For the compound `CC(=O)N[C@@H](Cc1c[nH]cn1)C(=O)N[C@H](Cc1ccc(Cl)cc1)C(=O)N1Cc2ccccc2C[C@H]1C(=O)N[C@H](Cc1ccc([N+](=O)[O-])cc1)C(N)=O`, the EC50 in assay [7] amounted to 0.4 nM; in assay [8] it was 0.63 nM; in assay [1], 3 nM; in assay [2] it was 15 nM; in assay [9], 5.2 nM; in assay [10] it was 130 nM. Moreover, the EC50 in assay [11] was determined as 2.8 nM; in assay [4], 4 nM; in [3], 82 nM; in [12], 4.3 nM.

For `CC(=O)N[C@@H](CCCNC(=N)N)C(=O)N[C@H](Cc1ccc(Cl)cc1)C(=O)N[C@@H](CCCNC(=N)N)C(=O)N1Cc2ccccc2C[C@H]1C(N)=O`, the values for the EC50 in assay [7] and in assay [2] were 110 nM and 2720 nM, respectively.
